A short description of data set [1]: Inhibition of EGFR expression in human MCF7 cells assessed as negative expression region (M1) at 500 nM incubated for 24 hrs by flow cytometry analysis (reference value: 0.66%). The class given is functional.
The nature of data set [2]: Inhibition of EGFR expression in human MCF7 cells assessed as negative expression region (M1) at 25 nM incubated for 24 hrs by flow cytometry analysis (reference value: 0.66%). In kind it is functional. (In general: In flow cytometry, cells or beads pass a laser one at a time.)
A short description of data set [3]: Inhibition of HER2 expression in human MCF7 cells assessed as positive expression region (M2) at 50 nM incubated for 24 hrs by flow cytometry analysis (reference value: 99.09%). In kind it is functional.
Data set [4] is described as follows: Inhibition of HER2 expression in human MCF7 cells assessed as negative expression region (M1) at 100 nM incubated for 24 hrs by flow cytometry analysis (reference value: 0.98%). In kind it is functional.
A short description of data set [5]: Inhibition of HER2 expression in human MCF7 cells assessed as positive expression region (M2) at 500 nM incubated for 24 hrs by flow cytometry analysis (reference value: 99.09%). The class given is functional.
Data set [6] can be described thus: Inhibition of HER2 expression in human MCF7 cells assessed as negative expression region (M1) at 500 nM incubated for 24 hrs by flow cytometry analysis (reference value: 0.98%). The class given is functional.
Data set [7] can be described thus: Inhibition of EGFR expression in human MCF7 cells assessed as positive expression region (M2) at 500 nM incubated for 24 hrs by flow cytometry analysis (reference value: 99.36%). In kind it is functional.
A short description of data set [8]: Inhibition of EGFR expression in human MCF7 cells assessed as negative expression region (M1) at 50 nM incubated for 24 hrs by flow cytometry analysis (reference value: 0.66%). The class given is functional.
Data set [9] is described as follows: Inhibition of EGFR expression in human MCF7 cells assessed as negative expression region (M1) at 100 nM incubated for 24 hrs by flow cytometry analysis (reference value: 0.66%). The class given is functional.
Data set [10] in a line: Inhibition of EGFR expression in human MCF7 cells assessed as positive expression region (M2) at 100 nM incubated for 24 hrs by flow cytometry analysis (reference value: 99.36%). In kind it is functional.
Data set [11] concerns MCF7. Description: Cytotoxicity against human MCF7 cells assessed as inhibition of cell growth measured after 3 days by MTT assay. In kind it is functional, cell-based. The note with it: MCF7, 72 h.
Data set [12] can be described thus: Inhibition of EGFR expression in human MCF7 cells assessed as positive expression region (M2) at 1000 nM incubated for 24 hrs by flow cytometry analysis (reference value: 99.36%). In kind it is functional.
Data set [13] can be described thus: Inhibition of HER2 expression in human MCF7 cells assessed as positive expression region (M2) at 1000 nM incubated for 24 hrs by flow cytometry analysis (reference value: 99.09%). In kind it is functional.
Data set [14] is described as follows: Inhibition of EGFR expression in human MCF7 cells assessed as positive expression region (M2) at 50 nM incubated for 24 hrs by flow cytometry analysis (reference value: 99.36%). The class given is functional.
Data set [15] is described as follows: Inhibition of EGFR expression in human MCF7 cells assessed as positive expression region (M2) at 25 nM incubated for 24 hrs by flow cytometry analysis (reference value: 99.36%). The class given is functional.
Data set [16] in a line: Inhibition of HER2 expression in human MCF7 cells assessed as negative expression region (M1) at 50 nM incubated for 24 hrs by flow cytometry analysis (reference value: 0.98%). In kind it is functional.
Data set [17] can be described thus: Inhibition of HER2 expression in human MCF7 cells assessed as negative expression region (M1) at 25 nM incubated for 24 hrs by flow cytometry analysis (reference value: 0.98%). The class given is functional.
Data set [18] is described as follows: Cytotoxicity against African green monkey Vero cells assessed as inhibition of cell growth measured after 3 days by MTT assay. The note with it: African green monkey (Chlorocebus sabaeus). The class given is toxicity, cell-based. (In general: Tetrazolium assays rely on reduction of a dye to a coloured formazan, in cell work by metabolically active cells.)
A short description of data set [19]: Inhibition of HER2 expression in human MCF7 cells assessed as negative expression region (M1) at 1000 nM incubated for 24 hrs by flow cytometry analysis (reference value: 0.98%). The class given is functional.
In data set [20] the target is Epidermal growth factor receptor (Homo sapiens, UniProt P00533). Description: Inhibition of wild type EGFR (unknown origin) incubated for 40 mins in presence of ATP by kinase glo max assay. A general note: Kinase-Glo measures the ATP left after a reaction by luminescence.
Chain of Epidermal growth factor receptor (P00533 whole entry): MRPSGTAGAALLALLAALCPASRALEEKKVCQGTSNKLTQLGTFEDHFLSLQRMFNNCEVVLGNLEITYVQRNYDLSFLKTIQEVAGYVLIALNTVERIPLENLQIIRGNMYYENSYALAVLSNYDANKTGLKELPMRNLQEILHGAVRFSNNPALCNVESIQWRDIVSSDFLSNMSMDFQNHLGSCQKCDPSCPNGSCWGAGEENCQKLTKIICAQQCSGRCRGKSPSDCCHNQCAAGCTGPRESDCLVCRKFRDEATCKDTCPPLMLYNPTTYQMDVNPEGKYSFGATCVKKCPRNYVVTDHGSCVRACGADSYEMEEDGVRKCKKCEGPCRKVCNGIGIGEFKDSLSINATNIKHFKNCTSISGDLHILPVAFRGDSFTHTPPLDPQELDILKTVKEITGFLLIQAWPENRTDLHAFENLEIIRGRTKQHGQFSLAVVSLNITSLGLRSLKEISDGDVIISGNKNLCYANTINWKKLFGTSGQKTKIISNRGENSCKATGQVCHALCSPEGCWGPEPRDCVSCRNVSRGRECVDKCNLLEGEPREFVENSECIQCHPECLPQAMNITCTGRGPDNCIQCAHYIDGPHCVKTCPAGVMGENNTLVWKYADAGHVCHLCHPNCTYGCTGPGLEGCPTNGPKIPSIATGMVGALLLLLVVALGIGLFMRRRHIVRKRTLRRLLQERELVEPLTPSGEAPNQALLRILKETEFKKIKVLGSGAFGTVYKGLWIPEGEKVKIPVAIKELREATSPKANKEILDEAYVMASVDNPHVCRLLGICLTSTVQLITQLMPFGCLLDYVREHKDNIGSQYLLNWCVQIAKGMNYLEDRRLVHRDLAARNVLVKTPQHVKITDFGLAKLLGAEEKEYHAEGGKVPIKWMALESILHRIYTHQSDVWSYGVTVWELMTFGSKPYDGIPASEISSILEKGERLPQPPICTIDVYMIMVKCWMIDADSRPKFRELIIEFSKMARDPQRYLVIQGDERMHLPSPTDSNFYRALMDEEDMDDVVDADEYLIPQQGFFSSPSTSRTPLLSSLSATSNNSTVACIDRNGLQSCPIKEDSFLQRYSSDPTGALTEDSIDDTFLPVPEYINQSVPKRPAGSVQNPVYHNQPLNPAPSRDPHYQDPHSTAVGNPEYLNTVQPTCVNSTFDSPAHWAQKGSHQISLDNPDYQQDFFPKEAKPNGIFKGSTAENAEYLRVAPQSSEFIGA
A short description of data set [21]: Inhibition of EGFR expression in human MCF7 cells assessed as negative expression region (M1) at 1000 nM incubated for 24 hrs by flow cytometry analysis (reference value: 0.66%). In kind it is functional.
Data set [22] can be described thus: Inhibition of HER2 expression in human MCF7 cells assessed as positive expression region (M2) at 100 nM incubated for 24 hrs by flow cytometry analysis (reference value: 99.09%). In kind it is functional.
Data set [23] in a line: Inhibition of HER2 expression in human MCF7 cells assessed as positive expression region (M2) at 25 nM incubated for 24 hrs by flow cytometry analysis (reference value: 99.09%). In kind it is functional.

Structures are written as SMILES.

For orientation: inhibition means the drop in the measured response relative to a control, in per cent. What is called IC50 is the concentration that gives 50% inhibition. With `COc1ccc(NC(=O)C2=C(C)NC(=O)NC2c2ccc(OC)c(OC)c2)c(OC)c1` (stereo not drawn), the inhibition at 0.5 µM in [1] stood at 94.4%; in data set [5], 10.3%; in [6] it was 89.9%; in [7] it was 5.73%. Further, the inhibition at 0.025 µM turned out to be 18.1% in data set [2], 82.2% in data set [15], 32.7% in data set [17] and 67.9% in data set [23]. Further, the inhibition at 0.05 µM in data set [3] came out at 36.8%; in data set [8], 40.2%; in data set [14] it was 60%; in data set [16], 63.8%. Also, the inhibition at 0.1 µM in data set [4] is 79.3%; in data set [9] it was 68.3%; in data set [10], 32.5%; in data set [22], 21%. Moreover, the IC50 in data set [11] was found to be 14.2 µM; in [20], 0.0698 µM. Further, the inhibition at 1 µM in [12] is 3.42%; in [13], 6.78%; in data set [19], 93.4%; in [21] it was 96.7%. In addition, the IC50 at 3 days in data set [18] was determined as 30.1 µM.

As to `COc1ccc(NC(=O)C2=C(C)NC(=S)NC2c2ccc(OCc3ccccc3)c(OC)c2)c(OC)c1` (stereo not drawn), the inhibition at 0.5 µM in data set [1] came to 83.2%; in [5], 22.3%; in data set [6], 78.4%; in data set [7], 17.4%. The inhibition at 0.025 µM amounted to 32.1% in data set [2], 68.7% in [15], 14.9% in [17] and 85.5% in [23]. Also, the inhibition at 0.05 µM in [3] turned out to be 57.8%; in data set [8], 62.4%; in [14] it was 38.4%; in data set [16] it was 42.6%. The inhibition at 0.1 µM in [4] stood at 72.1%; in data set [9], 80.5%; in data set [10] it was 20.1%; in data set [22] it was 28.3%. The IC50 came out at 17 µM in data set [11] and 0.0768 µM in [20]. Also, the inhibition at 1 µM in data set [12] was found to be 4.17%; in [13], 7.42%; in [19] it was 92.7%; in data set [21], 96%. In addition, in [18], the IC50 at 3 days amounted to 52.9 µM.

Consider `COc1ccc(NC(=O)C2=C(C)NC(=O)NC2c2ccc(OCc3ccccc3)c(OC)c2)c(OC)c1` (stereo not drawn), for which the inhibition at 0.5 µM stood at 91.1% in [1], 5.16% in data set [5], 95% in data set [6] and 9.15% in [7]. In addition, the inhibition at 0.025 µM is 37.6% in [2], 63.2% in data set [15], 57.5% in data set [17] and 43% in [23]. Moreover, the inhibition at 0.05 µM in data set [3] came out at 22.4%; in data set [8] it was 66.7%; in data set [14], 33.8%; in data set [16], 77.9%. The inhibition at 0.1 µM was 88.7% in [4], 84.3% in data set [9], 16.1% in data set [10] and 11.6% in data set [22]. The IC50 in data set [11] was 9.38 µM. Further, the inhibition at 1 µM stood at 1.49% in data set [12], 3.21% in data set [13], 96.9% in [19] and 98.6% in [21]. Besides, the IC50 at 3 days in data set [18] came out at 18.4 µM.

For the origin of these results see ChEMBL document CHEMBL5584246, “Novel dihydropyrimidines as promising EGFR & HER2 inhibitors: Insights from experimental and computational studies” (Eur J Med Chem, 2024).
